# Laboratory results as given in patent publication US7544704B2, “Aryl-4-ethynyl-isoxazole derivatives” (Hoffmann-La Roche Inc., priority 2006, dated 2009).
# Target: T1, human GABA A receptor α5β3γ2 (Homo sapiens, UniProt P18507+P31644)
# T1 construct: expressed in transfected cells; host or cells: HEK293 (transiently transfected), membranes
# Assay: [3H]flumazenil competition binding to HEK293 cell membranes expressing human GABA A α5β3γ2
# Conditions: displacement of [3H]flumazenil (0.5 nM), human α5β3γ2 transiently transfected in HEK293, means of two determinations; read-out: Ki[nM] hα5
# Method: Membrane Preparation and Binding Assay
# The affinity of compounds at GABA A receptor subtypes was measured by competition for [3H]flumazenil (85 Ci/mmol; Roche) binding to HEK293 cells expressing rat (stably transfected) or human (transiently transfected) receptors of composition α1β3γ2, α2β3γ2, α3β3γ2 and α5β3γ2.
# Cell pellets were suspended in Krebs-tris buffer (4.8 mM KCl, 1.2 mM CaCl2, 1.2 mM MgCl2, 120 mM NaCl, 15 mM Tris; pH 7.5; binding assay buffer), homogenized by polytron for ca. 20 sec on ice and centrifuged for 60 min at 4° C. (50000 g; Sorvall, rotor: SM24=20000 rpm). The cell pellets were resuspended in Krebs-tris buffer and homogenized by polytron for ca. 15 sec on ice. Protein was measured (Bradford method, Bio-Rad) and aliquots of 1 mL were prepared and stored at −80° C.
# Radioligand binding assays were carried out in a volume of […] (96-well plates) which contained […] of cell membranes, [3H]flumazenil at a concentration of 1 nM for α1, α2, α3 subunits and 0.5 nM for a5 subunits and the test compound in the range of […]. Nonspecific binding was defined by 10^−5 M diazepam and typically represented less than 5% of the total binding. Assays were incubated to equilibrium for 1 hour at 4° C. and harvested onto GF/C uni-filters (Packard) by filtration using a Packard harvester and washing with ice-cold wash buffer (50 mM Tris; pH 7.5). After drying, filter-retained radioactivity was detected by liquid scintillation counting. Ki values were calculated using Excel-Fit (Microsoft) and are the means of two determinations.
row,Structure (SMILES),Ki [nM]
1,"Cc1onc(-c2ccccc2)c1C#Cc1cccc(C(=O)NC2CCOCC2)c1 [Example 8, 3-(5-Methyl-3-phenyl-isoxazol-4-ylethynyl)-N-(tetrahydro-pyran-4-yl)-benzamide]",91.6
2,"Cc1onc(-c2ccccc2)c1C#Cc1cc(C(=O)NC2CCOCC2)ccn1 [Example 28, 2-(5-Methyl-3-phenyl-isoxazol-4-ylethynyl)-N-(tetrahydro-pyran-4-yl)-isonicotinamide]",20.7
3,"Cc1onc(-c2ccccc2)c1C#Cc1ncc(-c2ccccc2)n1C [Example 32, 5-Methyl-4-(1-methyl-5-phenyl-1H-imidazol-2-ylethynyl)-3-phenyl-isoxazole]",28.4
4,"Cc1cnc(C)c(C#Cc2c(-c3ccccc3)noc2C)n1 [Example 26, 2,5-Dimethyl-3-(5-methyl-3-phenyl-isoxazol-4-ylethynyl)-pyrazine]",10.4
5,"Cc1onc(-c2ccccc2)c1C#Cc1nccn1C [Example 21, 5-Methyl-4-(1-methyl-1H-imidazol-2-ylethynyl)-3-phenyl-isoxazole]",26
6,"Cc1ccc(C#Cc2c(-c3ccccc3)noc2C)nc1 [Example 31, 5-Methyl-2-(5-methyl-3-phenyl-isoxazol-4-ylethynyl)-pyridine]",45.5
7,"Cc1onc(-c2ccccc2)c1C#Cc1cnccn1 [Example 34, 2-(5-Methyl-3-phenyl-isoxazol-4-ylethynyl)-pyrazine]",59.2
8,"Cc1onc(-c2ccccc2)c1C#Cc1ccccc1N [Example 14, 2-(5-Methyl-3-phenyl-isoxazol-4-ylethynyl)-phenylamine]",38.4
9,"Cc1onc(-c2ccccc2)c1C#Cc1ncc(C)n1-c1ccccc1 [Example 33, 5-Methyl-4-(5-methyl-1-phenyl-1H-imidazol-2-ylethynyl)-3-phenyl-isoxazole]",23.7
10,"Cc1cccc(C#Cc2c(-c3ccccc3)noc2C)n1 [Example 35, 2-Methyl-6-(5-methyl-3-phenyl-isoxazol-4-ylethynyl)-pyridine]",39.3
11,"Cc1ccc(C#Cc2c(-c3ccccc3)noc2C)nn1 [Example 19, 3-Methyl-6-(5-methyl-3-phenyl-isoxazol-4-ylethynyl)-pyridazine]",26.6
12,"Cc1onc(-c2ccccc2)c1C#Cc1ccccn1 [Example 1, 2-(5-Methyl-3-phenyl-isoxazol-4-ylethynyl)-pyridine]",47.9
13,"Cc1onc(-c2ccccc2)c1C#Cc1cc(C(=O)NCC2CC2)ccn1 [Example 27, N-Cyclopropylmethyl-2-(5-methyl-3-phenyl-isoxazol-4-ylethynyl)-isonicotinamide]",39.8
14,"COC(=O)c1ccnc(C#Cc2c(-c3ccccc3)noc2C)c1 [Example 17, 2-(5-Methyl-3-phenyl-isoxazol-4-ylethynyl)-isonicotinic acid methyl ester]",74.9
15,"Cc1c[nH]nc1C#Cc1c(-c2ccccc2)noc1C [Example 23, 5-Methyl-4-(4-methyl-1H-pyrazol-3-ylethynyl)-3-phenyl-isoxazole]",53
16,"Cc1onc(-c2ccccc2)c1C#Cc1cccc(Cl)n1 [Example 30, 2-Chloro-6-(5-methyl-3-phenyl-isoxazol-4-ylethynyl)-pyridine]",71.9
17,"CCOC(=O)c1nc(C)sc1C#Cc1c(-c2ccccc2)noc1C [Example 24, 2-Methyl-5-(5-methyl-3-phenyl-isoxazol-4-ylethynyl)-thiazole-4-carboxylic acid ethyl ester]",85.2
18,"Cc1ncc(C#Cc2c(-c3ccccc3)noc2C)[nH]1 [Example 22, 5-Methyl-4-(2-methyl-3H-imidazol-4-ylethynyl)-3-phenyl-isoxazole]",77.2
19,"Cc1csc(NC(=O)c2ccnc(C#Cc3c(-c4ccccc4)noc3C)c2)n1 [Example 29, 2-(5-Methyl-3-phenyl-isoxazol-4-ylethynyl)-N-(4-methyl-thiazol-2-yl)-isonicotinamide]",90.1
20,"COC(=O)c1ccccc1C#Cc1c(-c2ccccc2)noc1C [Example 12, 2-(5-Methyl-3-phenyl-isoxazol-4-ylethynyl)-benzoic acid methyl ester]",87.3

# Other lines, results leading:
row,Ki [nM],Structure (SMILES)
1,23.5,"Cc1onc(-c2ccccc2)c1C#Cc1nc(C)n(-c2cc(F)cc(F)c2)c1C [Example 56, 4-[1-(3,5-Difluoro-phenyl)-2,5-dimethyl-1H-imidazol-4-ylethynyl]-5-methyl-3-phenyl-isoxazole]"
2,84.4,"Cc1onc(-c2ccccc2)c1C#Cc1cnc2ccccc2n1 [Example 45, 2-(5-Methyl-3-phenyl-isoxazol-4-ylethynyl)-quinoxaline]"
3,55.7,"Cc1onc(-c2ccccc2)c1C#Cc1ccc(N)cn1 [Example 41, 6-(5-Methyl-3-phenyl-isoxazol-4-ylethynyl)-pyridin-3-ylamine]"
4,39.1,"Cc1onc(-c2ccccc2)c1C#Cc1nc(C)n(-c2ccc(F)cc2)c1C [Example 57, 4-[1-(4-Fluoro-phenyl)-2,5-dimethyl-1H-imidazol-4-ylethynyl]-5-methyl-3-phenyl-isoxazole]"
5,7.3,"CCOC(=O)c1c(C)nc(C#Cc2c(-c3ccccc3)noc2C)n1C [Example 50, 3,5-Dimethyl-2-(5-methyl-3-phenyl-isoxazol-4-ylethynyl)-3H-imidazole-4-carboxylic acid ethyl ester]"
6,18.3,"Cc1onc(-c2ccccc2)c1C#Cc1cncc(N)n1 [Example 46, 6-(5-Methyl-3-phenyl-isoxazol-4-ylethynyl)-pyrazin-2-ylamine]"
7,54.5,"Cc1onc(-c2ccc(Cl)cc2)c1C#Cc1ccccn1 [Example 59, 2-[3-(4-Chloro-phenyl)-5-methyl-isoxazol-4-ylethynyl]-pyridine]"
8,48,"Cc1ccnc(C#Cc2c(-c3ccccc3)noc2C)c1 [Example 37, 4-Methyl-2-(5-methyl-3-phenyl-isoxazol-4-ylethynyl)-pyridine]"
9,37,"Cc1onc(-c2ccccc2)c1C#Cc1cc(C(F)(F)F)ccn1 [Example 38, 2-(5-Methyl-3-phenyl-isoxazol-4-ylethynyl)-4-trifluoromethyl-pyridine]"
10,28.9,"Cc1cccnc1C#Cc1c(-c2ccccc2)noc1C [Example 39, 3-Methyl-2-(5-methyl-3-phenyl-isoxazol-4-ylethynyl)-pyridine]"
11,81.7,"Cc1onc(-c2ccccc2)c1C#Cc1ccc(Cl)cn1 [Example 42, 5-Chloro-2-(5-methyl-3-phenyl-isoxazol-4-ylethynyl)-pyridine]"
12,37.2,"Cc1onc(-c2ccccc2)c1C#Cc1cnc(N)cn1 [Example 47, 5-(5-Methyl-3-phenyl-isoxazol-4-ylethynyl)-pyrazin-2-ylamine]"
13,38.9,"CCc1ccnc(C#Cc2c(-c3ccccc3)noc2C)c1 [Example 44, 4-Ethyl-2-(5-methyl-3-phenyl-isoxazol-4-ylethynyl)-pyridine]"
14,52.6,"Cc1onc(-c2ccccc2)c1C#Cc1cc(-c2ccc(F)cc2)n(C)n1 [Example 53, 4-[5-(4-Fluoro-phenyl)-1-methyl-1H-pyrazol-3-ylethynyl]-5-methyl-3-phenyl-isoxazole]"
15,15.5,"Cc1onc(-c2ccccc2)c1C#Cc1nc2n(c1C)CCCC2 [Example 52, 3-Methyl-2-(5-methyl-3-phenyl-isoxazol-4-ylethynyl)-5,6,7,8-tetrahydro-imidazo[1,2-a]pyridine]"
16,31.9,"COC(=O)c1csc(C#Cc2c(-c3ccccc3)noc2C)n1 [Example 61, 2-(5-Methyl-3-phenyl-isoxazol-4-ylethynyl)-thiazole-4-carboxylic acid methyl ester]"
